Data on 2 molecules can be found in US12297222B2, “CD206 targeted drug delivery vehicles carrying novel bisphosphonate drug payloads via a degradable linker” (Navidea Biopharmaceuticals, Inc., priority 2022, dated 2025).

Data set [1] concerns human macrophages. Kind of data set: Human macrophage cell culture assay: surface marker expression (MFI) by flow cytometry. Type of data set: cell-based. The protocol:
GM-CSF induces the macrophages to adopt an activated phenotype that is intermediate between the extremes of M1 or M2. […] The macrophage cell cultures were incubated with the supplemented complete medium for 24 hours after which it was removed and replaced with fresh complete medium. The macrophage cultures were then incubated for an additional three days. The three-day post treatment incubation was performed to permit assessment of durable changes in macrophage phenotypes.
For each donor's macrophages, all experiments were run in triplicate.
Background: Flow cytometry measures light scatter and fluorescence of single cells or particles in a stream.

Data set [2] deals with human macrophages. In words: Human macrophage cell culture assay: viability (DAPI-) by flow cytometry. Format: cell-based. The note with it: 24 hours treatment, then three days in fresh medium; any tested concentration. The protocol: GM-CSF induces the macrophages to adopt an activated phenotype that is intermediate between the extremes of M1 or M2. […] The macrophage cell cultures were incubated with the supplemented complete medium for 24 hours after which it was removed and replaced with fresh complete medium. The macrophage cultures were then incubated for an additional three days. The three-day post treatment incubation was performed to permit assessment of durable changes in macrophage phenotypes. […] For each donor's macrophages, all experiments were run in triplicate.

Take `CC(=O)c1sc(NCC(P(=O)(O)O)P(=O)(O)O)nc1C` [BIS-1, 2-(4-methyl-5-acetylthiazole-2-yl-amino)ethylidene 1,1-bisphosphonic acid]: the “expression levels of the evaluated surface markers (overall)” value with human macrophages [1] (FIG. 5, 80 μg of MAD-BIS-1 or equal molar free BIS-1, fold change in MFI vs saline) is listed as “very little effect”. Besides, in the data set on human macrophages [1] (free BIS-1 at any dose), the “changes in macrophage phenotype observed with MAD-BIS-1” value is “could not be replicated”. Also, the cell viability result with human macrophages [2] was “neither MAD-BIS-1 nor free BIS-1 decreased cell viability”.

For the molecule `CC(=O)c1cn(CC(C)(P(=O)(O)O)P(=O)(O)O)cn1` [BIS-2, 2-(4-acetylimidazole)ethylidene-1-methyl-1,1-bisphosphonic acid], the “expression level of the evaluated surface markers (overall)” value in the data set on human macrophages [1] (FIG. 8, free BIS-2) is on record as “did not alter”.
